Source: patent US8609836B2, “4-aryl-2-anilino-pyrimidines” (Janssen Pharmaceutica NV, priority 2008, dated 2013)

Assays:
PLK4 (h) = PLK4 (h) (Homo sapiens, UniProt O00444); assay: PLK-4 human kinase inhibition, scintillation proximity assay (SPA); format: biochemical; conditions: read-out: PLK4 pIC50 (converted)
Description: (§1) In the SPA technology the activity of the kinase of interest is measured using an appropriate biotinylated substrate that is incubated with the aforementioned kinase protein in the presence of (^33P) radiolabeled ATP. (^33P) Phosphorylation of the substrate is subsequently measured through binding of the phosphorylated substrate to streptavidine coated beads that are based on the scintillant poly(vinyl toluene) (PVT-Beads). The scintillation intensity is detected by imaging on Leadseeker.
(§2) All kinases are pre-diluted to a 10× working concentration prior to addition into the assay. The composition of the dilution buffer for each kinase is detailed below.
(6.0 μCi/ml). After incubation of 60 minutes at room temperature, the reaction is stopped by addition of 40 μL of stop solution containing 8.7 mM EDTA, BSA 0.17%, 0.17% Triton X-100, 1.7 mg/ml SPA beads (GE-healthcare). The plate is centrifuged and read for Scintillation imaging on Leadseeker.

AuroraB (h) = AuroraB (h) (Homo sapiens, UniProt Q96GD4); assay: Aurora-B human kinase inhibition, SPA; format: biochemical; conditions: read-out: AuroraB pIC50 (converted)
AuroraB (h), sequence (Q96GD4 whole entry): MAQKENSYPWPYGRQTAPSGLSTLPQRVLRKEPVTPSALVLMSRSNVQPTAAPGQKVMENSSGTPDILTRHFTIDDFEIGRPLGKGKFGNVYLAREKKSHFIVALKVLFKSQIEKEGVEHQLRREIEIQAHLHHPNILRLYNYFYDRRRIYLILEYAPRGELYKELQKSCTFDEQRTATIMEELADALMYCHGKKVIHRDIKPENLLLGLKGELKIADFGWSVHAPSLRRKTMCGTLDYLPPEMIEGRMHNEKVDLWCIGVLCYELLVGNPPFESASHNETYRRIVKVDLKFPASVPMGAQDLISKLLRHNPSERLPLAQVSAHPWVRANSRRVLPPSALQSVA
Description: (§3) The in vitro inhibition of a panel of kinases was assessed using either the scintillation proximity assay (SPA) as described by Cook, N. D. et al., Advances in Experimental Medicine and Biology (1991), 36; p. 525-528.
as §1, §2
In a final reaction volume of 30 μl, AuroraB (h) (0.5 μg/ml) is incubated with 60 mM Hepes pH 7.5, 3 mM MgCl2, 3 mM MnCl2, 3 μM Na3VO4, 0.05 mg/ml PEG, 2 mM DTT, 3 μM Biotin-[…]-OH, 0.5 μM ATP and 2.2 nM [γ-^33P-ATP] (6.8 μCi/ml). After incubation of 60 minutes at room temperature, the reaction is stopped by addition of 40 μL of stop solution containing 8.7 mM EDTA, BSA 0.17%, 0.17% Triton X-100, 5 mg/ml SPA beads (GE-healthcare). The plate is centrifuged and read for Scintillation imaging on Leadseeker.

GSK3β (h) = GSK3β (h) (Homo sapiens, UniProt P49841); assay: GSK-3β human kinase inhibition, SPA; format: biochemical; conditions: read-out: GSK3b pIC50 (converted)
GSK3β (h), sequence (P49841 whole entry): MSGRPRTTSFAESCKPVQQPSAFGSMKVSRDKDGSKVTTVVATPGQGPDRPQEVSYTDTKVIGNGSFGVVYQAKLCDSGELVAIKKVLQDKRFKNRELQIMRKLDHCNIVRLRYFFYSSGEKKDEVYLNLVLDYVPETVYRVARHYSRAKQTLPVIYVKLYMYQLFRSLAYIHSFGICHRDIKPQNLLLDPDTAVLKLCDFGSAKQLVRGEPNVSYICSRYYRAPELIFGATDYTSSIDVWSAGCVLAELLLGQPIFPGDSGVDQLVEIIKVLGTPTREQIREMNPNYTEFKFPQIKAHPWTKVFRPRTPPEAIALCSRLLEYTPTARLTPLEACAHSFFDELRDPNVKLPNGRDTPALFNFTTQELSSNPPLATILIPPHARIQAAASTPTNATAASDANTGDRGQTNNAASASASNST
Description: as §3, §1, §2
In a final reaction volume of 30 μl, GSK3β (h) (1 μg/ml) is incubated with 25 mM Tris pH 7.4, 10 mM MgCl2, 1 mM DTT, 1 μM peptide Biotin-[…]-OH, 1 μM ATP and 2 nM [γ-^33P-ATP] (6.0 μCi/ml). After incubation of 60 minutes at room temperature, the reaction is stopped by addition of 40 μL of stop solution containing 8.7 mM EDTA, BSA 0.17%, 0.17% Triton X-100, 6.25 mg/ml SPA beads (GE-healthcare). The plate is centrifuged and read for Scintillation imaging on Leadseeker.

CDK1/CyclinB (h) = CDK1/CyclinB (h) (Homo sapiens, UniProt P06493); assay: CDK1/CyclinB human kinase inhibition, Invitrogen's FRET assay (Z'lyte); format: biochemical; conditions: read-out: CDK1 pIC50 (converted)
CDK1/CyclinB (h), sequence (P06493 whole entry): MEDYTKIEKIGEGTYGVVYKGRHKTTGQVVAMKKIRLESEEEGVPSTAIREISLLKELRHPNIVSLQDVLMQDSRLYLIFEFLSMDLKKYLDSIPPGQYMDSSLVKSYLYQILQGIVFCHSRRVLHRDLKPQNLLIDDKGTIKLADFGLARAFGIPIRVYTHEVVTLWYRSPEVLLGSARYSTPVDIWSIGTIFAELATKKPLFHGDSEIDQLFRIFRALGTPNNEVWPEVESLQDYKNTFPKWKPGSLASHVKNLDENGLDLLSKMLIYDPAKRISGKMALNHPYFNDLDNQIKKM
CDK1/CyclinB (h), sequence (P14635 whole entry partner): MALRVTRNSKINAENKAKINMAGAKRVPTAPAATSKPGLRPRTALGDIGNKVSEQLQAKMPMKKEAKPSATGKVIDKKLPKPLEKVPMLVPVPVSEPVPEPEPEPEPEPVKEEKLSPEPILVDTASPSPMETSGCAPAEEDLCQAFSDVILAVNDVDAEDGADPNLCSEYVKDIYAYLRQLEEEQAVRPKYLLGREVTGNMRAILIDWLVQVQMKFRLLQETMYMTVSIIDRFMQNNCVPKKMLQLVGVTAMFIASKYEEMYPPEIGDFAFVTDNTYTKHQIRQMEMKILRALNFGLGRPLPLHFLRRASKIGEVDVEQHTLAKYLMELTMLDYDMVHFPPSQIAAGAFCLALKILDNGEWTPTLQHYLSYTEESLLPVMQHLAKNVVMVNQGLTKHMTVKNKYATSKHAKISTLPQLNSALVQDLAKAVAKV
Description: as §3, §2
In a final reaction volume of 10 μl, CDK1/CyclinB (h) (0.2 μg/ml) is incubated with 50 mM Hepes pH 7.5, 10 mM MgCl2, 1 mM EGTA, 0.01% Brij-35, 2 μM Z'lyte Ser/Thr peptide 12 and 10 μM ATP (Invitrogen's FRET assay). After incubation of 60 minutes at room temperature, the reaction is stopped by addition of 5 μL development reagent containing protease mix. After 60 minutes room temperature the development reaction is stopped by adding 5 μl stop solution. The plate is then read in fluorescence plate reader with excitation: 390 nm and dual emission: 460 and 538 nm. Emission ratio is determined to the formula=Emission signal intensity at 460 nm/Emission signal intensity at 538 nm.

PLK1 T210D (h) = PLK1 T210D (h) (Homo sapiens, UniProt P53350, T210D); assay: PLK1 human kinase inhibition, SPA; format: biochemical; conditions: read-out: PLK1 pIC50 (converted)
PLK1 T210D (h), sequence (P53350 whole entry T210D): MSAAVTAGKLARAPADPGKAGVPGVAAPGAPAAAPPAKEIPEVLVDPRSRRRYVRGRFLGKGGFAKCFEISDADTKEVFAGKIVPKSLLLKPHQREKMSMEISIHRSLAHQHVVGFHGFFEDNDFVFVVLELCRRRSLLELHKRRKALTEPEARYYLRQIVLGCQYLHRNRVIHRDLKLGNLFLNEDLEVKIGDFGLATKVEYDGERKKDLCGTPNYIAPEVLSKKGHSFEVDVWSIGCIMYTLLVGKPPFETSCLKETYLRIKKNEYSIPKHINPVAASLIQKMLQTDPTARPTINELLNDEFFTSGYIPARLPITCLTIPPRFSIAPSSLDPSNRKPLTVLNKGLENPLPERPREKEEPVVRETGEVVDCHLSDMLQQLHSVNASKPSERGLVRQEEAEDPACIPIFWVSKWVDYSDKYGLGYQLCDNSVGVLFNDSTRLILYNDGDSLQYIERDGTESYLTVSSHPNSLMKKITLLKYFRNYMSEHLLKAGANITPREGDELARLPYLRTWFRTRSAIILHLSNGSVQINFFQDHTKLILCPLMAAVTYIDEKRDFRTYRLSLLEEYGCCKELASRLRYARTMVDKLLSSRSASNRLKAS
Description: as §3, §1, §2
In a final reaction volume of 30 μl, PLK1 T210D (h) (0.125 ng/ml) is incubated with 50 mM Hepes pH 8.0, 2 mM MnCl2, 1 mM DTT, 2 μM of peptide Biotin-Tds linker-[…], 0.1 μM ATP and 2 nM [γ-^33P-ATP] (6.0 μCi/ml). After incubation of 40 minutes at room temperature, the reaction is stopped by addition of 40 μL of stop solution containing 8.7 mM EDTA, BSA 0.17%, 0.17% Triton X-100, 25 mg/ml SPA beads (GE-healthcare). The plate is centrifuged and read for Scintillation imaging on Leadseeker.

PLK2 (h) = PLK2 (h) (Homo sapiens, UniProt Q9NYY3); assay: PLK2 human kinase inhibition, SPA; format: biochemical; conditions: read-out: PLK2 pIC50 (converted)
PLK2 (h), sequence (Q9NYY3 whole entry): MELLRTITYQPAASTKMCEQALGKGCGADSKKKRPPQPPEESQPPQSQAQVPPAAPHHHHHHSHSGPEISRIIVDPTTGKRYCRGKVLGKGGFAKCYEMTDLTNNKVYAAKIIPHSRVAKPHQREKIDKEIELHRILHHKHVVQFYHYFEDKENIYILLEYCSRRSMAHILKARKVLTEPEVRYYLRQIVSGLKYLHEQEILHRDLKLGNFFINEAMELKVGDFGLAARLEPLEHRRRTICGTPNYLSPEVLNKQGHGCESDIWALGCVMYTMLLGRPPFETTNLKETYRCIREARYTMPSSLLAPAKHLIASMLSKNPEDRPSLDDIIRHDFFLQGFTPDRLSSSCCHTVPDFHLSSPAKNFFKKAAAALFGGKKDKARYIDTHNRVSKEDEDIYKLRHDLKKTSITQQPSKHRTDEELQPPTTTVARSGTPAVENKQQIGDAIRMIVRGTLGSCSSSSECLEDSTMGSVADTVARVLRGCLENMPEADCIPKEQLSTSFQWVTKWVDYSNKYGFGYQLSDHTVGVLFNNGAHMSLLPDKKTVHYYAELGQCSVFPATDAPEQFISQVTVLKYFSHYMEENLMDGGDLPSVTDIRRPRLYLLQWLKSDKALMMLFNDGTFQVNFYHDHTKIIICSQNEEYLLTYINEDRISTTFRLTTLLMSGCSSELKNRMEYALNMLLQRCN
Description: as §3, §1, §2
(§4) In a final reaction volume of 30 μl, PLK2 (h) (30 μg/ml) is incubated with 50 mM Hepes pH 8.0, 2 mM MnCl2, 1 mM DTT, 2 μM of peptide Biotin-Tds linker-[…], 0.1 μM ATP and 2 nM [γ-^33P-ATP] (6.0 μCi/ml). After incubation of 20 minutes at room temperature, the reaction is stopped by addition of 40 μL of stop solution containing 8.7 mM EDTA, BSA 0.17%, 0.17% Triton X-100, 25 mg/ml SPA beads (GE-healthcare). The plate is centrifuged and read for Scintillation imaging on Leadseeker.

PLK3 (h) = PLK3 (h) (Homo sapiens, UniProt Q9H4B4); assay: PLK3 human kinase inhibition, SPA; format: biochemical; conditions: read-out: PLK3 pIC50 (converted)
PLK3 (h), sequence (Q9H4B4 whole entry): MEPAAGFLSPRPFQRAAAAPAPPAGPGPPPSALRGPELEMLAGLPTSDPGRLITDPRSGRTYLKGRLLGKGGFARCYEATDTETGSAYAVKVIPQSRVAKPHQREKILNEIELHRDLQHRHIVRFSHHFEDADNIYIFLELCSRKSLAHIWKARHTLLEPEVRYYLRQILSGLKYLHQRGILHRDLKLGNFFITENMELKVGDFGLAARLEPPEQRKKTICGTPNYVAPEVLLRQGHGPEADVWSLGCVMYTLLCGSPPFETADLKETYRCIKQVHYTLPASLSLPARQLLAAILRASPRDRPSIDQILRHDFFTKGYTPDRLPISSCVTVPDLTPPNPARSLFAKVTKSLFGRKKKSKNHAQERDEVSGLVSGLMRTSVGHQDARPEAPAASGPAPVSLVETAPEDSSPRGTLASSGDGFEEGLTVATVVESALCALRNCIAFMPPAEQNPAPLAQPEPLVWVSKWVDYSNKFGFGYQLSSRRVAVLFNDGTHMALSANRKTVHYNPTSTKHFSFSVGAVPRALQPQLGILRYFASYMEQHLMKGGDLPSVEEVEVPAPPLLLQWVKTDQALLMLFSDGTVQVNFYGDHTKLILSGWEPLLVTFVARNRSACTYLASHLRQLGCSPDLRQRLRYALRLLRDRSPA
Description: as §3, §1, §2
as §4, with “PLK3” for “PLK2”

HCT-116 = assay: Cellular proliferation assay (Alamar blue), HCT-116; format: cell-based; conditions: Homo sapiens, 10% FCS, 72 hours with compound, Alamar blue 4 h
Description: (§5) […] functional properties of these compounds were tested in cellular proliferation assays on a panel of different cell lines in the presence of 10% FCS serum (37° C. and 5% (v/v) CO2). In a first step these cells were seeded and incubated for 24 hours in the absence of compound. In the second step the cells were incubated for 72 hours with the compounds to be tested for 72 hours. The viable cell number was finally assessed in a standard Alamar blue cell viability assay.
(§6) The viable cell number was assessed by incubation for either 4 h (HCT-116, H1299) 6 h (U87-MG) or 24 h (A2780, MDA-MB-231) with Alamar blue (Resazurin 9 μg/ml, K-Ferrocyanide 90 μM, K-Ferricyanide 90 μM) and the converted fluorescent product was quantified on a fluorescent plate reader (544 nm/590 nm). Effect of the compounds is calculated as of on control cells.

H1299 = assay: Cellular proliferation assay (Alamar blue), H1299; format: cell-based; conditions: Homo sapiens, NCI-H1299; 10% FCS; 72 hours with compound; Alamar blue 4 h
Description: as §5, §6

U87-MG = assay: Cellular proliferation assay (Alamar blue), U87-MG; format: cell-based; conditions: Homo sapiens, U-87 MG; 10% FCS; 72 hours with compound; Alamar blue 6 h; read-out: U87-MG (cellular proliferation assay, Table 4) (converted)
Description: as §5, §6

A2780 = assay: Cellular proliferation assay (Alamar blue), A2780; format: cell-based; conditions: Homo sapiens, 10% FCS, 72 hours with compound, Alamar blue 24 h, read-out: A2780 (cellular proliferation assay, Table 4) (converted)
Description: as §5, §6

MDA-MB-231 = assay: Cellular proliferation assay (Alamar blue), MDA-MB-231; format: cell-based; conditions: Homo sapiens, 10% FCS, 72 hours with compound, Alamar blue 24 h, read-out: MDA/MB231 (cellular proliferation assay, Table 4) (converted)
Description: as §5, §6

PLK4 (h), sequence (O00444 whole entry): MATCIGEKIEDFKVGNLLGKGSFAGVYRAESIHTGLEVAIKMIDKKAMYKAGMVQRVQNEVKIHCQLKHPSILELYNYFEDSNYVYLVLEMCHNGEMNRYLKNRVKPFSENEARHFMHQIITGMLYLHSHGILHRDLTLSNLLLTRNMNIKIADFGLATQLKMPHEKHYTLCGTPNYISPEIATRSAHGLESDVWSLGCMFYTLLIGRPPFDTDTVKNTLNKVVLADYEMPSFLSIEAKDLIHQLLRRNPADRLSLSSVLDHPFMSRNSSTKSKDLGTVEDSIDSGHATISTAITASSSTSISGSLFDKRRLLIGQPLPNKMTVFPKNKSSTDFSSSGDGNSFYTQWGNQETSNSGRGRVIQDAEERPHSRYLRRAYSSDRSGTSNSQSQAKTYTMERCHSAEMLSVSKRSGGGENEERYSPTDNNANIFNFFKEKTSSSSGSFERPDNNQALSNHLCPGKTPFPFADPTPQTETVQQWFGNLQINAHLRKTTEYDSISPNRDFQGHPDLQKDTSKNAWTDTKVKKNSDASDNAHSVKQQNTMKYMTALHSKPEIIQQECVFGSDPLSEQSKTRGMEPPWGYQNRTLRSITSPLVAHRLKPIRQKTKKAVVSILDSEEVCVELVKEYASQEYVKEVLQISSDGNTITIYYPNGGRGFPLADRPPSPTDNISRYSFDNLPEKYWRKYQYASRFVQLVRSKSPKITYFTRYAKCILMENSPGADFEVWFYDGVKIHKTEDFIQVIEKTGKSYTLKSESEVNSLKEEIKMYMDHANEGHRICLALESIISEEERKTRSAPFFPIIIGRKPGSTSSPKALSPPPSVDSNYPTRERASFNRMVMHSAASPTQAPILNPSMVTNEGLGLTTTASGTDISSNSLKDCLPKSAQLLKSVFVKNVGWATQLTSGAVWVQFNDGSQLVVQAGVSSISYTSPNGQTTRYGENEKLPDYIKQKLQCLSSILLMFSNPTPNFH

SMILES | IC50 (PLK4 (h)) [µM] | IC50 (AuroraB (h)) [µM] | IC50 (GSK3β (h)) [µM] | IC50 (CDK1/CyclinB (h)) [µM] | IC50 (PLK1 T210D (h)) [µM] | IC50 (PLK2 (h)) [µM] | IC50 (PLK3 (h)) [µM] | IC50 (HCT-116) [µM] | IC50 (H1299) [µM] | IC50 (U87-MG) [µM] | IC50 (A2780) [µM] | IC50 (MDA-MB-231) [µM]
COc1cc2cc(c1OC)CNC(=O)[C@H](CO)NCc1cccc(c1)-c1ccnc(n1)N2 [Compound 8] | 0.363 | 4.68 | 0.309 | > 10 | > 10 | 3.63 | 4.68 | 7.94 | > 10 | > 10 | > 10 | > 10
O=C1NCCCNCc2ccc(cc2)-c2ccnc(n2)Nc2ccc(N3CCOCC3)c(c2)CN2CCC1CC2 [Compound 69] | 1.58 | – | – | – | > 10 | – | – | > 10 | 2.63 | 5.62 | > 10 | > 10
COc1ccc2cc1CN1CCC(CC1)C(=O)N(C)CCCN(C)c1ccc(cn1)-c1ccnc(n1)N2 [Compound 85] | 5.89 | > 10 | 2.95 | > 10 | > 10 | > 10 | > 10 | 4.79 | 5.89 | > 10 | > 10 | > 10
CC1(C)NCc2cc(ccc2N2CCOCC2)Nc2nccc(n2)-c2cccc(c2)OCCCNC1=O [Compound 90] | 0.646 | > 10 | 0.417 | 4.68 | > 10 | > 10 | > 10 | 1.7 | 8.71 | 4.57 | 6.03 | 5.37
O=C1NCCCOc2cccc(c2)-c2ccnc(n2)Nc2ccc(N3CCOCC3)c(c2)CN2CCC1CC2 [Compound 93] | 1.12 | > 10 | 4.68 | > 10 | > 10 | > 10 | > 10 | 3.63 | > 10 | > 10 | 7.24 | 10
O=C1NCCCOc2cccc(c2)-c2ccnc(n2)Nc2ccc(N3CCOCC3)c(c2)CN2C[C@H](O)C[C@@H]12 [Compound 99] | 3.63 | > 10 | 0.417 | > 10 | > 10 | > 10 | > 10 | 6.92 | > 10 | 6.92 | 7.76 | > 10
CN1CCNC(=O)[C@H](CO)NCc2cc(cc(N3CCOCC3)c2)Nc2nccc(n2)-c2ccc(cc2)C1 [Compound 108] | 0.603 | 6.03 | 6.61 | > 10 | > 10 | > 3.02 | > 10 | 8.32 | > 10 | 8.91 | > 10 | > 10
CN1CCCNC(=O)[C@H](CO)NCc2cc(Br)cc(c2)Nc2nccc(n2)-c2ccc(cc2)C1 [Compound 110] | 0.759 | 2.57 | 6.46 | > 10 | > 10 | > 10 | > 10 | > 10 | – | 8.51 | 5.5 | –
CN1CCNC(=O)[C@H](CO)NCc2cc(Br)cc(c2)Nc2nccc(n2)-c2ccc(cc2)C1 [Compound 121] | – | – | – | – | – | – | – | 1.91 | 6.03 | 7.24 | 10 | 7.76
COc1ccc2cc1CN1CCN(CC1)CC(=O)N(C)CCCN(C)c1ccc(cn1)-c1ccnc(n1)N2 [Compound 148] | – | – | – | – | – | – | – | 0.316 | > 10 | 4.68 | > 10 | > 10
O=C1NCCNCc2ccc(cc2)-c2ccnc(n2)Nc2ccc(N3CCOCC3)c(c2)CN2C[C@H](O)C[C@@H]12 [Compound 166] | 3.55 | – | – | – | > 10 | – | – | > 10 | – | > 3.02 | > 10 | > 10
O=C1NCCCNCc2ccc(cc2)-c2ccnc(n2)Nc2ccc(N3CCOCC3)c(c2)CN2CCC[C@@H]12 [Compound 172] | 5.37 | – | – | – | > 10 | – | – | > 10 | – | 4.79 | > 10 | > 10
COc1ccc2cc1CNCCCNC(=O)[C@@H]1C[C@@H](O)CN1Cc1cc(ccc1N1CCOCC1)Nc1nccc-2n1 [Compound 176] | > 10 | – | – | – | > 10 | – | – | > 10 | > 10 | > 10 | > 10 | > 10
